In the supplement of paper PMC8967900:

Key:
Assay in all cases: selective drug sensitivity score (sDSS, relative to normal bone marrow) (sDSS (score)); higher = more potent and effective on the cell line relative to normal bone marrow cells
Settings in all cases: 72 h
[1] = tested on: NALL-1
[2] = tested on: SEM cells
[3] = tested on: 697
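Note: ALL cell lines in 384-well plates, five doses spanning 10,000-fold, each plate scaled between vehicle and 100 µmol/L benzalkonium chloride controls, sDSS an adapted area-under-curve metric.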

Cc1nc(Nc2ncc(C(=O)Nc3c(C)cccc3Cl)s2)cc(N2CCN(CCO)CC2)n1 [Dasatinib] (top concentration 1000 nM)
selective drug sensitivity score [1]: -2.8
selective drug sensitivity score [2]: -2.4
selective drug sensitivity score [3]: 3.1

CCc1cnn2c(NCc3ccc[n+]([O-])c3)cc(N3CCCC[C@H]3CCO)nc12 [Dinaciclib] (top concentration 1000 nM)
selective drug sensitivity score [1]: -6.24
selective drug sensitivity score [2]: -4.34
selective drug sensitivity score [3]: -2.64

COc1cccc2c1C(=O)c1c(O)c3c(c(O)c1C2=O)C[C@@](O)(C(=O)CO)C[C@@H]3O[C@H]1C[C@H](N)[C@H](O)[C@H](C)O1 [Doxorubicin] (top concentration 1000 nM)
selective drug sensitivity score [1]: -1.92
selective drug sensitivity score [2]: 4.08
selective drug sensitivity score [3]: 9.88

C=C1C[C@@H]2[C@H](CC[C@]3(C)C(=O)CC[C@@H]23)[C@@]2(C)C=CC(=O)C=C12 [Exemestane] (top concentration 10000 nM)
selective drug sensitivity score [1]: -1.9
selective drug sensitivity score [2]: -1.9
selective drug sensitivity score [3]: -0.9

COc1cc2c(Oc3ccc(NC(=O)C4(C(=O)Nc5ccc(F)cc5)CC4)cc3F)ccnc2cc1OCCCN1CCOCC1 [Foretinib] (top concentration 1000 nM)
selective drug sensitivity score [1]: 1.74
selective drug sensitivity score [2]: 20.9
selective drug sensitivity score [3]: 2.24

COc1cc(Nc2ncc(F)c(Nc3ccc4c(n3)N(COP(=O)(O)O)C(=O)C(C)(C)O4)n2)cc(OC)c1OC [Fostamatinib] (top concentration 2500 nM)
selective drug sensitivity score [1]: -2.64
selective drug sensitivity score [2]: 9.96
selective drug sensitivity score [3]: 3.16

CC1(C)OCCn2c1nc1c(N3CCOCC3)nc(-c3cnc(N)nc3)nc12 [GDC-0084] (top concentration 10000 nM)
selective drug sensitivity score [1]: 8.7
selective drug sensitivity score [2]: 14.4
selective drug sensitivity score [3]: 8.2

CC(C)c1cc(-c2n[nH]c(=O)n2-c2ccc3c(ccn3C)c2)c(O)cc1O [Ganetespib] (top concentration 1000 nM)
selective drug sensitivity score [1]: -1.86
selective drug sensitivity score [2]: 1.24
selective drug sensitivity score [3]: 1.24

CCc1nc(C(N)=O)c(Nc2ccc(N3CCC(N4CCN(C)CC4)CC3)c(OC)c2)nc1NC1CCOCC1 [Gilteritinib] (top concentration 1000 nM)
selective drug sensitivity score [1]: -2.52
selective drug sensitivity score [2]: 4.38
selective drug sensitivity score [3]: 1.88

CCN(CC)Cc1ccc2cc(COC(=O)Nc3ccc(C(=O)NO)cc3)ccc2c1 [Givinostat] (top concentration 1000 nM)
selective drug sensitivity score [1]: -0.4
selective drug sensitivity score [2]: 4.4
selective drug sensitivity score [3]: 4.8

COCCNCc1ccc(-c2cc3nccc(Oc4ccc(NC(=S)NC(=O)Cc5ccc(F)cc5)cc4F)c3s2)nc1 [Glesatinib] (top concentration 2500 nM)
selective drug sensitivity score [1]: 2.94
selective drug sensitivity score [2]: 14.1
selective drug sensitivity score [3]: 0.04

C=CC(=O)N1CCC[C@@H](n2nc(-c3ccc(Oc4ccccc4)cc3)c3c(N)ncnc32)C1 [Ibrutinib] (top concentration 1000 nM)
selective drug sensitivity score [1]: 0
selective drug sensitivity score [2]: 0
selective drug sensitivity score [3]: 2.2

CC[C@H](Nc1ncnc2[nH]cnc12)c1nc2cccc(F)c2c(=O)n1-c1ccccc1 [Idelalisib] (top concentration 10000 nM)
selective drug sensitivity score [1]: 3.54
selective drug sensitivity score [2]: 3.54
selective drug sensitivity score [3]: 1.84

O=C(Nc1ccncc1)C(=O)c1cn(Cc2ccc(Cl)cc2)c2ccccc12 [Indibulin] (top concentration 10000 nM)
selective drug sensitivity score [1]: 9.94
selective drug sensitivity score [2]: 11.9
selective drug sensitivity score [3]: 12

CC(C)C[C@H](NC(=O)CNC(=O)c1cc(Cl)ccc1Cl)B(O)O [Ixazomib] (top concentration 1000 nM)
selective drug sensitivity score [1]: 6.56
selective drug sensitivity score [2]: 13.1
selective drug sensitivity score [3]: 5.56

CC(C)NC(=O)COc1cccc(-c2nc(Nc3ccc4[nH]ncc4c3)c3ccccc3n2)c1 [KD025] (top concentration 5000 nM)
selective drug sensitivity score [1]: 2.54
selective drug sensitivity score [2]: -2.96
selective drug sensitivity score [3]: -0.66

Nc1cccc2c1CN(C1CCC(=O)NC1=O)C2=O (stereo not drawn) [Lenalidomide] (top concentration 100000 nM)
selective drug sensitivity score [1]: -2.28
selective drug sensitivity score [2]: 3.82
selective drug sensitivity score [3]: -2.28

Sc1ncnc2nc[nH]c12 [Mercaptopurine] (top concentration 10000 nM)
selective drug sensitivity score [1]: 10.7
selective drug sensitivity score [2]: 12.6
selective drug sensitivity score [3]: 8

Cc1ccc(C(=O)Nc2ccc(Oc3cc4cnn(C)c4cc3-c3cn[nH]c3)c(F)c2)c(=O)n1-c1ccc(F)cc1 [Merestinib] (top concentration 1000 nM)
selective drug sensitivity score [1]: 8.28
selective drug sensitivity score [2]: 19.8
selective drug sensitivity score [3]: 0.48

CNC(=O)c1nn(C)c2c1C(C)(C)Cc1cnc(Nc3ccc(N4CCN(C)CC4)cc3)nc1-2 [Milciclib] (top concentration 10000 nM)
selective drug sensitivity score [1]: -0.86
selective drug sensitivity score [2]: 10
selective drug sensitivity score [3]: 12.5

N#CCNC(=O)c1ccc(-c2ccnc(Nc3ccc(N4CCOCC4)cc3)n2)cc1 [Momelotinib] (top concentration 10000 nM)
selective drug sensitivity score [1]: -6.72
selective drug sensitivity score [2]: 1.48
selective drug sensitivity score [3]: 2.68

Cc1ccc(C(=O)Nc2cccc(C(F)(F)F)c2)cc1Nc1nc(-c2cccnc2)nc2c1cnn2C [NVP-BHG712] (top concentration 10000 nM)
selective drug sensitivity score [1]: 2.98
selective drug sensitivity score [2]: 2.48
selective drug sensitivity score [3]: 3.78

Cn1c(Nc2ccc(C(F)(F)F)cc2)nc2cc(Oc3ccnc(-c4ncc(C(F)(F)F)[nH]4)c3)ccc21 [NVP-RAF265] (top concentration 1000 nM)
selective drug sensitivity score [1]: 2.88
selective drug sensitivity score [2]: 4.48
selective drug sensitivity score [3]: 9.68

CC1(C)CC[C@]2(NC(=O)C(C)(F)F)CC[C@]3(C)[C@H](C(=O)C=C4[C@@]5(C)C=C(C#N)C(=O)C(C)(C)[C@@H]5CC[C@]43C)[C@@H]2C1 [Omaveloxolone] (top concentration 10000 nM)
selective drug sensitivity score [1]: 3.98
selective drug sensitivity score [2]: 4.88
selective drug sensitivity score [3]: 4.78

CC(C)c1cc(C(=O)N2Cc3ccc(CN4CCN(C)CC4)cc3C2)c(O)cc1O [Onalespib] (top concentration 2500 nM)
selective drug sensitivity score [1]: -4.68
selective drug sensitivity score [2]: 3.92
selective drug sensitivity score [3]: 2.82

COC[C@H](NC(=O)c1cnc(C)s1)C(=O)N[C@@H](COC)C(=O)N[C@@H](Cc1ccccc1)C(=O)[C@@]1(C)CO1 [Oprozomib] (top concentration 2500 nM)
selective drug sensitivity score [1]: 0.9
selective drug sensitivity score [2]: 11.3
selective drug sensitivity score [3]: 0.2

COc1ccccc1S(=O)(=O)Nc1ccc2c(c1)CN(C)C(=O)N2 [PFI-1] (top concentration 30000 nM)
selective drug sensitivity score [1]: -4.1
selective drug sensitivity score [2]: 4.7
selective drug sensitivity score [3]: 3.7

NS(=O)(=O)OC[C@@H]1C[C@@H](n2ccc3c(N[C@H]4CCc5ccccc54)ncnc32)C[C@@H]1O [Pevonedistat] (top concentration 10000 nM)
selective drug sensitivity score [1]: 9.4
selective drug sensitivity score [2]: 9.9
selective drug sensitivity score [3]: 13.1

CCCCc1nc2cc(/C=C/C(=O)NO)ccc2n1CCN(CC)CC [Pracinostat] (top concentration 10000 nM)
selective drug sensitivity score [1]: 3.18
selective drug sensitivity score [2]: 5.28
selective drug sensitivity score [3]: 7.68

COc1cccc(OCCCN)c1-c1cc(Nc2cnc(C#N)cn2)n[nH]1 [Prexasertib] (top concentration 10000 nM)
selective drug sensitivity score [1]: 19.4
selective drug sensitivity score [2]: 15.9
selective drug sensitivity score [3]: 18.4

Cc1cn(-c2cc(NC(=O)c3ccc(C)c(Nc4nccc(-c5cnccn5)n4)c3)cc(C(F)(F)F)c2)cn1 [Radotinib] (top concentration 10000 nM)
selective drug sensitivity score [1]: 0
selective drug sensitivity score [2]: 0
selective drug sensitivity score [3]: 5.7
